Data: patent US20160221974A1, “SODIUM CHANNEL MODULATORS FOR THE TREATMENT OF PAIN AND DIABETES” (CHROMOCELL CORPORATION, priority 2013, published 2016)
pIC50: −log10 of the molar value.

Columns and labels:
hNaV1.7 = target: T1, hNaV1.7 (Homo sapiens, UniProt Q15858); assay: FDSS Membrane Potential In-Vitro Assay; type: cell-based; details: stimulation with veratridine and scorpion venom, read-out: NaV1.7 IC50
T1 construct: expressed in transfected cells

[1] = tested on: streptozotocin (STZ)-induced diabetic model; assay: Streptozotocin (STZ)-Induced Model of Diabetic Neuropathy, behavioral tests; type: in vivo, male Sprague-Dawley rats; details: 30 mg/kg, measured 30 minutes post dose
Experimental: 250-350 g male Sprague-Dawley rats from appropriate animal resources were used. Type I diabetes was induced by a single injection, (intraperitoneally, intravenously or intramuscularly) of 50-100 mg/kg of streptozotocin (STZ, Sigma Chemicals, St. Louis, Mo. or VWR) freshly dissolved in sodium citrate (0.01 M, pH 4.5). Sham animals were given either saline or same vehicle injection. Following a wait time of about two days, inducement of diabetes was confirmed in STZ-injected rats by measuring the plasma glucose concentrations in blood samples from the tail vein after a fast of 6 hours. […] Other parameters (water intake, food intake, and bodyweight) were monitored before the treatment with a test compound and after the cessation of the treatment.
The analgesic effect of the test compound was expressed as a percent recovery (% Recovery) relative to the sham control group baseline and calculated according to the formula: […]
(§1) Rats were placed on the glass surface of a thermal testing apparatus (Model 336, IITC/Life Science Instruments, Woodland Hills, Calif.) and were allowed to acclimate for 10 min before testing on the glass surface at room temperature. […] The paw withdrawal latency was recorded by a digital timer. The thermal threshold was determined as the mean withdrawal latency from two to three consecutive trials of both hindpaws. […]

NaV1.7 = target: T2, NaV1.7 (Homo sapiens, UniProt Q15858); assay: Patchliner Electrophysiological In-Vitro Assay (NaV1.7); type: cell-based; details: Patchliner patch clamp, HEK293, holding at V1/2
T2 construct: expressed in transfected cells
Summary of the method: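 Automated whole-cell patch clamp at room temperature on HEK293 cells stably expressing hNav1.7 with β1 and β2 subunits. Inactivated-state Ki: cells held at their own V1/2, stepped to −120 mV for 5–10 ms, then to Vmax for 10–20 ms, repeated every 10 s; dose-dependent inhibition analysed.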

CYP3A4 = target: T3, CYP3A4 (Homo sapiens, UniProt P08684); assay: In-Vitro Cytochrome P450 (CYP450) Inhibition Assay (Vivid CYP450); type: in vitro ADME; details: CYP3A4 enzyme complex (Vivid CYP450, Invitrogen), 6 μM test concentration
T3 construct: purchased Invitrogen
Experimental: We evaluated interaction of drug candidates with cytochrome P450 enzymes which are a major determinant of drug clearance via oxidative metabolism using a high throughput compatible, fluorescence based CYP450 screening assay (Vivid® CYP450, Invitrogen) according to manufacturer's directions.
In brief, test compounds at four different concentrations (μM—6.0, 2.0, 0.7, 0.2), a positive control (Ketoconazole) and a solvent control were incubated at room temperature in unique wells of a 96-well microtiter plate with CYP3A4 enzyme complex for 20 minutes. A pre-read fluorescence (Ex−485 nm/Em−530 nm) was measured at the start of the incubation using a Tecan Safire^2 microplate reader-monochromator to determine background fluorescence. At the end of the incubation period, enzyme substrate and co-enzyme were added and the reaction was kinetically monitored for 1 hour by measuring fluorescence every minute. Effect of test compounds on inhibition of CYP3A4 metabolism of provided substrate was determined by calculating the ratio of the effective reaction rate in presence of test compound to that in the absence of inhibitor.

[2] = tested on: Acetic Acid Writhing Model; assay: Writhing Model (Inflammatory Abdominal Pain), rats; type: in vivo; details: relative to vehicle control, doses of 10 to 30 mg/kg intraperitoneal route
Experimental: The Acetic Acid Writhing Model is associated with visceral pain (abdominal pain, such as stomach pain, and pain caused by, for example, bile duct congestion and kidney stones). A writhing test assesses acute peritoneovisceral pain. After acclimation of 2-3 days, a test compound, positive control or vehicle control was administered by intraperitoneal injection (i.p.) or by oral gavage 15-30 minutes prior to administration of acetic acid. The time of administration of test compound was recorded. For mice: Method A: 0.6% Acetic acid solution in saline was injected i.p. in a volume of 10 ml/kg; Method B: 1.2% Acetic acid solution in saline was injected i.p. in a volume of 5 ml/kg. For rats: 4% acetic acid in saline was injected i.p in a volume of 2 ml/kg at T=0 minutes. Each animal was placed in a clear plastic cage. At T=5 minutes, the number of writhing movements was counted over a 45 minute period. Alternatively, the writhing movements were counted over a 5-minute period and repeated every 5 minutes, starting at T=5 minutes over a 45-minute period. For each compound tested, the individual score was obtained by calculating the accumulated writhing movements for the time period studied. […]

[3] = tested on: Partial Sciatic Nerve Ligation (PSNL) model; assay: Partial Sciatic Nerve Ligation (PSNL) model, behavioral tests; type: in vivo, male Sprague-Dawley rats; details: 30 mg/kg intraperitoneal, measured 30-60 minutes post dose
Text: 250-350 g male Sprague-Dawley rats from appropriate animal resources were anesthetized with 2.5% isoflurane. A hind leg was shaved, and the skin was sterilized with 0.5% iodine and 75% alcohol. All surgical instruments were sterilized before surgery and between animals. An incision (1 cm) was made at the middle of the thigh in parallel with the muscle and sciatic nerve distribution. The muscle was exposed and dissected at the joint of two muscles (biceps femoris) indicated by the light colored (white) fascia line. The sciatic nerve was just beneath the muscle and was hooked out using an 18-20 G feeding needle (90 degree curved); the sciatic nerve was flat on the feeding needle and approximately one-half the diameter of the nerve is tightly ligated with 7-0 silk suture. A response of the injured leg twitch indicates the success of ligation. After checking hemostasis, bupivicaine 0.1-0.2 ml (0.125%) was given at the incision area, the muscle and the adjacent fascia are closed with 5-0 absorbable sutures. The skin was sutured with absorbable suture and tissue glue. The control group using sham surgery animals (about 8-10 animals) underwent the same surgical procedure but with no nerve ligation. Animals were returned to their home cage after recovery from anesthesia.
The analgesic effect of the test compound was expressed as a percent recovery (% Recovery) relative to the sham control group baseline and calculated according to the formula:
% Recovery=100%−{[(sham mean−test compound mean)/(sham mean−vehicle mean)]×100%}
wherein “sham mean” refers to average score in the sham-operated group; “test compound mean” refers to average score in the PSNL-group (animals with partial sciatic nerve ligation) or diabetic group (animals treated with STZ) treated with a test compound; “vehicle mean” refers to average score in the PSNL-group or diabetic group treated with vehicle only. The above formula was used to obtain data for the following in vivo behavioral tests.
The following behavioral tests were conducted (i.e., plantar test, paw pressure test, and von Frey test) started on day 3 and thereafter once weekly following surgery or use of a diabetic inducer. […]
as §1
Animals were placed under clear plastic boxes above a wire mesh floor, which allowed full access to the paws. […] Mechanical paw withdrawal thresholds (PWTs) were measured with the up-down testing paradigm. […]

T1 sequence (Q15858 whole entry): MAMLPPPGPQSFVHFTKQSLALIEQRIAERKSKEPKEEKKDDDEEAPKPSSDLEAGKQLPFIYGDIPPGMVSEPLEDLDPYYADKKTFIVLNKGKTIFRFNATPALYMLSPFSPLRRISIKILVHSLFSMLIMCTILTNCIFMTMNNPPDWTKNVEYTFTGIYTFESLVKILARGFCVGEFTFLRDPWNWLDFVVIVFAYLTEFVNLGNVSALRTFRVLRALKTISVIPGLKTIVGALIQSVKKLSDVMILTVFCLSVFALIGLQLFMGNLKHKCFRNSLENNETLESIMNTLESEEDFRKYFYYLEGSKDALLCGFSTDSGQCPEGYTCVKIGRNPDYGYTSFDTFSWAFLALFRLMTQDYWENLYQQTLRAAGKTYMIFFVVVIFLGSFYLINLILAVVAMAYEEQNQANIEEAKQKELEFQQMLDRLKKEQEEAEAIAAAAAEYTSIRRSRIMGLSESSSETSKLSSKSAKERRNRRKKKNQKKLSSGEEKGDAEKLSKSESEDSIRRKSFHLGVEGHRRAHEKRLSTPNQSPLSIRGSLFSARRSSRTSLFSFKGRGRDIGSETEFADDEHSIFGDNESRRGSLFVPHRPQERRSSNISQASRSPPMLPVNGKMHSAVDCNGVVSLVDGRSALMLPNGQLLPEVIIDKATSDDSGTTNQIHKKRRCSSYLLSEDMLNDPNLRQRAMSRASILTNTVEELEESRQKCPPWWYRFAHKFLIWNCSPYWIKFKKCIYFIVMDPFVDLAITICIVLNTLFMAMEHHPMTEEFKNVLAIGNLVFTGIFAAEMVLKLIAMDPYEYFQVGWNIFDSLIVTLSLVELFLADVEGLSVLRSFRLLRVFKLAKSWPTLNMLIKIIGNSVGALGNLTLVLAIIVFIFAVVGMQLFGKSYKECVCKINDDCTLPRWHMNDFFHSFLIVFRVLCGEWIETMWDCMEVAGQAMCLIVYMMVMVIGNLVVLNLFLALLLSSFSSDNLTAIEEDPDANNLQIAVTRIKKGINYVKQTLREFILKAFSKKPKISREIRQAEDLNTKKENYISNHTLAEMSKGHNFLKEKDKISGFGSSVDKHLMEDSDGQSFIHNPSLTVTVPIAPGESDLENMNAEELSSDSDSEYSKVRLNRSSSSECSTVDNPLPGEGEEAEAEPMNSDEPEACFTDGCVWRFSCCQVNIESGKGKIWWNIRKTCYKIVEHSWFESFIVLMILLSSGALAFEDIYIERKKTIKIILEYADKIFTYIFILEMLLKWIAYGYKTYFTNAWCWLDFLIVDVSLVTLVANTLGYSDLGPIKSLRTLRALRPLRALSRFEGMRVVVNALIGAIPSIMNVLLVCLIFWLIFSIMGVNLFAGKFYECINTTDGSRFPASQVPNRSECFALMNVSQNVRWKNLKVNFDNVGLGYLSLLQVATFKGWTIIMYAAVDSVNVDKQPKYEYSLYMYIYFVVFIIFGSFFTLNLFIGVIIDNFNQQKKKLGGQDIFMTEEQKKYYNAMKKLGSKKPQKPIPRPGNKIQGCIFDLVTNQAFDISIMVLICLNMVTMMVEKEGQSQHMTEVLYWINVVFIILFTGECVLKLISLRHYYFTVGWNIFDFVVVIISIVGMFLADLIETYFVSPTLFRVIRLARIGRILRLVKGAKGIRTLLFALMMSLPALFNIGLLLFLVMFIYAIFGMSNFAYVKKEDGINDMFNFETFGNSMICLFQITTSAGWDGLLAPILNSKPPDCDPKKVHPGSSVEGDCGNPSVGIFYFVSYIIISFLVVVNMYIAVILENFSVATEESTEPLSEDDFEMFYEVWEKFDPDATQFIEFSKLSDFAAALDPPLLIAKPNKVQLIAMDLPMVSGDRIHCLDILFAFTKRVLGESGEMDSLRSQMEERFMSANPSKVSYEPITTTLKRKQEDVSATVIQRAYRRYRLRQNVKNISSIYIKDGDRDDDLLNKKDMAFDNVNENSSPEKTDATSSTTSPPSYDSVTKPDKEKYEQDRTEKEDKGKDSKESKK
T1 sequence (Q07699 19-218 partner): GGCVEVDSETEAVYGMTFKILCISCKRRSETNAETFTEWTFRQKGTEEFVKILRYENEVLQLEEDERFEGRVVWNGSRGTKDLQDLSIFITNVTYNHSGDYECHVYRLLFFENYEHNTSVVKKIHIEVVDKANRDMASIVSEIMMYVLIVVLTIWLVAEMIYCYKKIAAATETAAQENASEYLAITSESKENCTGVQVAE
T1 sequence (O60939 30-215 partner): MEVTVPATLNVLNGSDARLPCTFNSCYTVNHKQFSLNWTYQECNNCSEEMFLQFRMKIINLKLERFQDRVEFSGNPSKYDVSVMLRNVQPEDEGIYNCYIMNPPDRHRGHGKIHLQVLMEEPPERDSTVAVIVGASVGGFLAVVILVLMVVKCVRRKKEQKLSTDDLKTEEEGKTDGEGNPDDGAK
T2 sequence (Q15858 whole entry): as the sequence (Q15858 whole entry) above
T2 sequence (Q07699 19-218 partner): as the sequence (Q07699 19-218 partner) above
T2 sequence (O60939 30-215 partner): as the sequence (O60939 30-215 partner) above
T3 sequence (P08684 2-503 limits assumed): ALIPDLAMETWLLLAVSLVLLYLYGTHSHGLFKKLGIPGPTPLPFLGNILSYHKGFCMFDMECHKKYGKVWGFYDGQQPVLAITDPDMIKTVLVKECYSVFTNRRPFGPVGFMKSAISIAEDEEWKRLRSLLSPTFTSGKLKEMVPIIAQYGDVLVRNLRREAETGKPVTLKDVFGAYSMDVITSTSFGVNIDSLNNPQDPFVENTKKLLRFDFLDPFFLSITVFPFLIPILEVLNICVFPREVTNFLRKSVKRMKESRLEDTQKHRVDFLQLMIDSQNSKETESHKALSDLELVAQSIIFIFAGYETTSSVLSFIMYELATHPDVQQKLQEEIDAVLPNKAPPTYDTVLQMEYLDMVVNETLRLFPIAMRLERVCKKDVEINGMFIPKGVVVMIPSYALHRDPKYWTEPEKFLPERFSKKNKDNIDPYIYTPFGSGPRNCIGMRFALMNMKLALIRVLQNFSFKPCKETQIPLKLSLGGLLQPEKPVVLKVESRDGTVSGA

Compound | pIC50 (hNaV1.7) | effect in the tactile allodynia test [1] | pIC50 (NaV1.7) | inhibition at 1 hour, 6 µM (CYP3A4) [%] | reduction in pain (writhing) [2] | effect in the tactile allodynia test [3]
O=C(O)CCNCCCc1cc(Cl)ccc1Oc1cc(F)c(S(=O)(=O)Nc2cscn2)cc1Cl [Compound 15, 3-((3-(5-chloro-2-(2-chloro-5-fluoro-4-(N-(thiazol-4-yl)sulfamoyl)phenoxy)phenyl)propyl)amino)propanoic acid] | 6.00 to 6.89 | no significant effect | > 7.00 | 0 to 25 |  | 
O=C(O)CNC(=O)c1cc(-c2cc(Cl)ccc2Oc2cc(F)c(S(=O)(=O)Nc3ncns3)cc2Cl)ccn1 [Compound 2, 2-(4-(2-(4-(N-(1,2,4-thiadiazol-5-yl)sulfamoyl)-2-chloro-5-fluorophenoxy)-5-chlorophenyl)picolinamido)acetic acid] | > 6.89 |  | > 7.00 | 50 to 100 | 48-58% | no significant effect
